Paper PMC8416343, “A Facile Procedure for One-Pot Stable Conjugation of Two Proglucagon Cysteine-Containing Peptide Analogs” (Frontiers in Endocrinology, 2021)

Experiments:
human GLP-1R = molecular target: T1, human GLP-1R (Homo sapiens, UniProt P43220); experiment: GLP-1 receptor activation, cAMP response element-luciferase reporter in BHK cells; assay type: cell-based; settings: for Statistical significance of EC50 difference at human GLP-1 receptor: between human GLP-1, peptide 4 and peptide 5, Student's unpaired t-test, n=6; for EC50: stably transfected BHK cells over-expressing human GLP-1R, CRE-luciferase, 3 h at 37°C, assay buffer with 1% ovalbumin, 12-point 3.5-fold dilution, n=6, kind of +/- not stated
T1 construct: expressed in transfected cells; host or cells: BHK cells (stably transfected, with CRE-firefly luciferase reporter)
T1 sequence (P43220 24-463): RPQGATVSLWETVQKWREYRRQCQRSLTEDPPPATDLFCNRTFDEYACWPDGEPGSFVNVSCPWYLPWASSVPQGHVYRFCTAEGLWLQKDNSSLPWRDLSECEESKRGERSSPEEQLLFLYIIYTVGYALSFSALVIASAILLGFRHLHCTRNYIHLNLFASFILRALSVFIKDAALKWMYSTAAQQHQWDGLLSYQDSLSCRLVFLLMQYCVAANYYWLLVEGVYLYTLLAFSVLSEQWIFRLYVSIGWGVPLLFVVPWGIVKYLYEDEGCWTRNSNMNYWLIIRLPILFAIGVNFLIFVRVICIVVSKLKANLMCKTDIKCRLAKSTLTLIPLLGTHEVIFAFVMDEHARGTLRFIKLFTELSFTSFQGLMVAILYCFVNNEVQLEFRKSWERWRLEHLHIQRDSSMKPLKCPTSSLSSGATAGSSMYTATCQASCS
Experimental: (§1) Receptor activation data was collected utilizing stably transfected BHK cells over-expressing either the human GLP-1R or GcgR and firefly luciferase reporter gene linked to the cAMP response element. The cells were maintained in continuous culture in DMEM supplemented with 10% HI FBS, 300 ug/mL hygromycin, and 500 ug/mL G418 at 37°C with 5% CO2. Cells were plated in the supplemented DMEM at 5,000 cells per well in 96 well poly-D-Lysine coated Corning BioCoat plates and incubated overnight at 37°C with 5% CO2. After the overnight incubation, the media was removed from the cell plates, washed once with DPBS, and 50uL of the assay buffer (DMEM without phenol red, 10 mM Hepes, 1x Glutamax, 1% ovalbumin, and 0.1% Pluronic F-68) was added to the plate. In a separate 96 well plate, the test compounds were serially diluted by 3.5-fold across the row of the plate to create a 12-point dilution curve. […] After the incubation, the assay plates were washed once in DPBS. Following the wash, 100 uL of DPBS was added to each well of the plates followed by 100 uL of the steadylite plus reagent (PerkinElmer). The assay plates were covered to protect from light, incubated at room temperature with shaking at 250 rpm for 30 minutes and read using a microtiter plate reader. The data was plotted using GraphPad Prism 9.0.1 with the nonlinear regression log(agonist) vs. response analysis to obtain the EC50 for each compound. Additionally, GraphPad Prism was used to complete the statistical analysis of the EC50 values with n=6 was using the Student’s unpaired t-test analysis.

human GcgR = molecular target: T2, human GcgR (Homo sapiens, UniProt P47871); experiment: Glucagon receptor activation, cAMP response element-luciferase reporter in BHK cells; assay type: cell-based; settings: for Statistical significance of EC50 difference at human glucagon receptor: between peptide 4 and peptide 5, Student's unpaired t-test, n=6; for EC50: stably transfected BHK cells over-expressing human GcgR, CRE-luciferase, 3 h at 37°C, assay buffer with 1% ovalbumin, 12-point 3.5-fold dilution, n=6, kind of +/- not stated
T2 construct: expressed in transfected cells; host or cells: BHK cells (stably transfected, with CRE-firefly luciferase reporter)
T2 sequence (P47871 26-477): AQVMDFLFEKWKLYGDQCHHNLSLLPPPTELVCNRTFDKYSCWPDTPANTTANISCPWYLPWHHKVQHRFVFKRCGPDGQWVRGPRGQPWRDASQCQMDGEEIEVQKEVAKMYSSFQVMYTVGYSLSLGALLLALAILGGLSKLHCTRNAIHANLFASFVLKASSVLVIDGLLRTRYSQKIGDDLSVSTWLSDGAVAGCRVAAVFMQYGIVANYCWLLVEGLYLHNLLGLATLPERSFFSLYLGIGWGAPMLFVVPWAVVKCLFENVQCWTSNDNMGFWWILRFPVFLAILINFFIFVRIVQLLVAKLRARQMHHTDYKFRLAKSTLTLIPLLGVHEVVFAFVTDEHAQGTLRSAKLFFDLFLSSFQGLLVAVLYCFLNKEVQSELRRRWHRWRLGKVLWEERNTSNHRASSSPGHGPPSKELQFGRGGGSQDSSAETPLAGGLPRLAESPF
Experimental: as §1

[1] = tested on: human GLP-1 and glucagon receptors; experiment: Glucagon and GLP-1 receptor activation, both receptors together (summary statements); assay type: cell-based; settings: heterodimers of glucagon and GLP-1 analogs; conclusion
Experimental: as §1, with “The data was plotted using GraphPad Prism 9.0.1 with the nonlinear regression log(agonist) vs. response analysis to obtain the EC50 for each compound. Additionally, GraphPad Prism was used to complete the statistical analysis of the EC50 values with n=6 was using the Student’s unpaired t-test analysis.” left out

[2] = Hydrolysis of thiosuccinimide / chemical stability of linker and conjugates, LC-MS; settings: for Time to complete hydrolysis of thiosuccinimide: pH 9.6, carbonate-diluted reaction mixture, LC-MS
[3] = pH 9.6

| Stability of linker ([2]; pH range of 6.0-8.3, compared with the self-hydrolysable maleimido linker) | SMILES | Statistical significance of EC50 difference at human GLP-1 receptor (human GLP-1R) | Potency in stimulating cAMP at GLP-1 receptors, in words (human GLP-1R; compared with native GLP-1, BHK cells, human GLP-1R) | EC50 (human GLP-1R) | Potency at human GCG receptor, in words (human GcgR; BHK cells, human GcgR, reduced versus native human glucagon, comparable between peptides 4 and 5) | Statistical significance of EC50 difference at human glucagon receptor (human GcgR) | EC50 (human GcgR) | GLP-1 receptor activity relative to glucagon [1] | Thiosuccinimide hydrolysis at pH 8.3 ([2]; pH 8.3, prolonged alkylation time) | Time to complete hydrolysis of thiosuccinimide ([2]; 37°C) | Time to complete hydrolysis of thiosuccinimide ([2]; room temperature) | Degradation of the conjugate during hydrolysis [3] |
| --- | --- | --- | --- | --- | --- | --- | --- | --- | --- | --- | --- | --- |
|  | CC[C@H](C)[C@H](NC(=O)[C@H](Cc1ccccc1)NC(=O)[C@H](CCC(=O)O)NC(=O)[C@H](CCCCN)NC(=O)[C@H](C)NC(=O)[C@H](C)NC(=O)[C@H](CCC(N)=O)NC(=O)[C@H](CCC(=O)O)NC(=O)[C@H](CCC(=O)O)NC(=O)[C@H](CC(C)C)NC(=O)[C@H](Cc1ccc(O)cc1)NC(=O)[C@H](CO)NC(=O)[C@H](CO)NC(=O)[C@@H](NC(=O)[C@H](CC(=O)O)NC(=O)[C@H](CO)NC(=O)[C@@H](NC(=O)[C@H](Cc1ccccc1)NC(=O)[C@@H](NC(=O)CNC(=O)[C@H](CCC(=O)O)NC(=O)C(C)(C)NC(=O)[C@@H](N)Cc1c[nH]cn1)[C@@H](C)O)[C@@H](C)O)C(C)C)C(=O)N[C@@H](C)C(=O)N[C@@H](Cc1c[nH]c2ccccc12)C(=O)N[C@@H](CC(C)C)C(=O)N[C@H](C(=O)N[C@@H](CCCCN)C(=O)NCC(=O)NCC(=O)N1CCC[C@H]1C(=O)N[C@@H](CO)C(=O)N[C@@H](CO)C(=O)NCC(=O)N[C@@H](C)C(=O)N1CCC[C@H]1C(=O)N1CCC[C@H]1C(=O)N1CCC[C@H]1C(=O)N[C@@H](CO)C(=O)N[C@@H](CSCC(=O)NCCN1C(=O)CC(SC[C@H](NC(=O)[C@H](CO)NC(=O)[C@@H]2CCCN2C(=O)[C@@H]2CCCN2C(=O)[C@@H]2CCCN2C(=O)[C@H](C)NC(=O)CNC(=O)[C@H](CO)NC(=O)[C@H](CO)NC(=O)[C@@H]2CCCN2C(=O)CNC(=O)CNC(=O)[C@H](CC(N)=O)NC(=O)[C@H](CCSC)NC(=O)[C@H](CC(C)C)NC(=O)[C@H](Cc2c[nH]c3ccccc23)NC(=O)[C@H](CCC(N)=O)NC(=O)[C@@H](NC(=O)[C@H](Cc2ccccc2)NC(=O)[C@H](CC(=O)O)NC(=O)[C@H](CCC(N)=O)NC(=O)[C@H](C)NC(=O)[C@H](CCCNC(=N)N)NC(=O)[C@H](CCCNC(=N)N)NC(=O)[C@H](CO)NC(=O)[C@H](CC(=O)O)NC(=O)[C@H](CC(C)C)NC(=O)[C@H](Cc2ccc(O)cc2)NC(=O)[C@H](CCCCN)NC(=O)[C@H](CO)NC(=O)[C@H](Cc2ccc(O)cc2)NC(=O)[C@H](CC(=O)O)NC(=O)[C@H](CO)NC(=O)[C@@H](NC(=O)[C@H](Cc2ccccc2)NC(=O)[C@@H](NC(=O)CNC(=O)[C@H](CCC(N)=O)NC(=O)[C@H](CO)NC(=O)[C@@H](N)Cc2c[nH]cn2)[C@@H](C)O)[C@@H](C)O)C(C)C)C(N)=O)C1=O)C(N)=O)C(C)C (stereo partly shown) [Peptide 4] | no statistical significance | comparable potency to native GLP-1 | 0.00468 ± 0.00153 nM | reduced but comparable potency | no statistical significance | 0.607 ± 0.428 nM | much enhanced GLP-1 receptor activity relative to glucagon | did not result in sufficient thiosuccinimide hydrolysis | ≤ 1 h | approximately 12 hours |  |
|  | CC[C@H](C)[C@H](NC(=O)[C@H](Cc1ccccc1)NC(=O)[C@H](CCC(=O)O)NC(=O)[C@H](CCCCN)NC(=O)[C@H](C)NC(=O)[C@H](C)NC(=O)[C@H](CCC(N)=O)NC(=O)[C@H](CCC(=O)O)NC(=O)[C@H](CCC(=O)O)NC(=O)[C@H](CC(C)C)NC(=O)[C@H](Cc1ccc(O)cc1)NC(=O)[C@H](CO)NC(=O)[C@H](CO)NC(=O)[C@@H](NC(=O)[C@H](CC(=O)O)NC(=O)[C@H](CO)NC(=O)[C@@H](NC(=O)[C@H](Cc1ccccc1)NC(=O)[C@@H](NC(=O)CNC(=O)[C@H](CCC(=O)O)NC(=O)C(C)(C)NC(=O)[C@@H](N)Cc1c[nH]cn1)[C@@H](C)O)[C@@H](C)O)C(C)C)C(=O)N[C@@H](C)C(=O)N[C@@H](Cc1c[nH]c2ccccc12)C(=O)N[C@@H](CC(C)C)C(=O)N[C@H](C(=O)N[C@@H](CCCCN)C(=O)NCC(=O)NCC(=O)N1CCC[C@H]1C(=O)N[C@@H](CO)C(=O)N[C@@H](CO)C(=O)NCC(=O)N[C@@H](C)C(=O)N1CCC[C@H]1C(=O)N1CCC[C@H]1C(=O)N1CCC[C@H]1C(=O)N[C@@H](CO)C(=O)N[C@@H](CSCC(=O)NCCNC(=O)C(CC(=O)O)SC[C@H](NC(=O)[C@H](CO)NC(=O)[C@@H]1CCCN1C(=O)[C@@H]1CCCN1C(=O)[C@@H]1CCCN1C(=O)[C@H](C)NC(=O)CNC(=O)[C@H](CO)NC(=O)[C@H](CO)NC(=O)[C@@H]1CCCN1C(=O)CNC(=O)CNC(=O)[C@H](CC(N)=O)NC(=O)[C@H](CCSC)NC(=O)[C@H](CC(C)C)NC(=O)[C@H](Cc1c[nH]c2ccccc12)NC(=O)[C@H](CCC(N)=O)NC(=O)[C@@H](NC(=O)[C@H](Cc1ccccc1)NC(=O)[C@H](CC(=O)O)NC(=O)[C@H](CCC(N)=O)NC(=O)[C@H](C)NC(=O)[C@H](CCCNC(=N)N)NC(=O)[C@H](CCCNC(=N)N)NC(=O)[C@H](CO)NC(=O)[C@H](CC(=O)O)NC(=O)[C@H](CC(C)C)NC(=O)[C@H](Cc1ccc(O)cc1)NC(=O)[C@H](CCCCN)NC(=O)[C@H](CO)NC(=O)[C@H](Cc1ccc(O)cc1)NC(=O)[C@H](CC(=O)O)NC(=O)[C@H](CO)NC(=O)[C@@H](NC(=O)[C@H](Cc1ccccc1)NC(=O)[C@@H](NC(=O)CNC(=O)[C@H](CCC(N)=O)NC(=O)[C@H](CO)NC(=O)[C@@H](N)Cc1c[nH]cn1)[C@@H](C)O)[C@@H](C)O)C(C)C)C(N)=O)C(N)=O)C(C)C (stereo partly shown) [Peptide 5] | no statistical significance |  | 0.00485 ± 0.00429 nM |  | no statistical significance | 0.323 ± 0.187 nM |  |  |  |  | without detectable degradation |
| enhanced stability | O=C(CI)NCCN1C(=O)C=CC1=O [Linker 1, N-(2-(2,5-dioxo-2,5-dihydro-1H-pyrrol-1-yl)ethyl)-2-iodoacetamide] |  |  |  |  |  |  |  |  |  |  |  |
